Measured values as given in US8815535B2, “Disk diffusion assay for oritavancin” (The Medicines Company, priority 2011, dated 2014).
Read-outs that look alike come from different tables or passages of the source.

How the values were obtained:
[1] = tested on: MRSA NRS123; test: Disk diffusion assay (zone of inhibition); format: cell-based; conditions: Staphylococcus aureus, 336 h
From the text: (§1) The study was designed to identify conditions that improve oritavancin diffusion in agar and consequently yield a zone diameter ≧15 mm for the CLSI quality control strain MSSA ATCC 25923. Excipients that increased the disk diffusion of oritavancin in agar relative to disks containing only oritavancin were identified and selected for further study. […] A prediffusion step at room temperature was introduced to maximize oritavancin diffusion prior to initiation of bacterial growth. In this step, the antimicrobial disks were placed on agar plates seeded with a bacterial isolate and incubated at room temperature for 3 hours. Plates were then incubated overnight at 37° C. Zone diameters around the disks in which bacterial growth was inhibited were measured with a ruler and reported in millimeters.
(§2) Ethanol-sterilized Whatman paper disks (6 mm diameter) were allowed to dry then impregnated with 20 microliters of oritavancin solution containing total amounts ranging from 90 to 360 micrograms. Disks were allowed to dry at room temperature for various times prior to use.
(§3) Bacterial suspensions were prepared and adjusted to an optical density of 0.1 at 600 nm. Standard cation-adjusted Mueller Hinton agar plates (90 mm diameter) were seeded with bacterial suspensions by initially swabbing the center of plate then moving outward towards the edge. The plate was swabbed a second time, perpendicular to the orientation of the first swab. To assess the impact of prediffusion on diameter of inhibition zones, two disks were immediately placed on one half of the plate and the plate was incubated for 3 hours at room temperature. After 3 hours, two additional disks were placed on the other half of the plate then the plate was incubated overnight at 37° C. Zone diameters were measured with a ruler and reported in millimeters.

[2] = tested on: VISA Mu50 (ATCC 700699); test: Disk diffusion assay (zone of inhibition); format: cell-based, Staphylococcus aureus; conditions: for zone of inhibition at 360 µg/disc: ATCC 700699; for zone of inhibition at 100 µg/disc: 100 μg in 4% P80/Span 80 (1:1); for zone of inhibition at 200 µg/disc: 200 μg in 4% P80/Span 80 (1:1)
From the text: as §1, with “In this step, the antimicrobial disks were placed on agar plates seeded with a bacterial isolate and incubated at room temperature for 3 hours.” left out
as §2
as §3, with “To assess the impact of prediffusion on diameter of inhibition zones, two disks were immediately placed on one half of the plate and the plate was incubated for 3 hours at room temperature.” left out
Oritavancin powder was dissolved in freshly-prepared solutions of the indicated excipients at concentrations of 0.625, 1.25, 2.5, 5, and 10 mg/ml (adjusted for potency based on lot 875561L00 purity of 83.1%) by vortexing for a minimum of 5 minutes. Oritavancin solutions in the various excipients, while not visually clear, were free from any apparent particulates as assessed visually. Sterile Oxoid blank disks were impregnated with 20 μl of these oritavancin solutions, resulting in oritavancin disk loads ranging from 12.5 to 200 μg. Unless indicated otherwise, disks were allowed to dry overnight at room temperature prior to use.
Bacterial suspensions from isolated colonies on overnight cation-adjusted Mueller Hinton agar plates were prepared in sterile saline and adjusted to an optical density of 0.1 at 600 nm Standard cation-adjusted Mueller Hinton agar plates (90 mm diameter) were seeded with bacterial suspensions by initially swabbing the center of plate then moving outward. Swabbing was continued at a right angle and then at an oblique angle to the first and second swabs. Disks were placed upon the seeded plates with sterile forceps. Plates were then incubated overnight at 37° C. and inhibition zone diameters were measured with a ruler and reported in millimeters.

[3] = Staphylococcus aureus, Mu50, calcium alginate swab, dried overnight, read-out: Inhibition zone diameter
[4] = Staphylococcus aureus, Mu50, cotton swab, dried overnight, estimate of diameter

Work on `CN[C@H](CC(C)C)C(=O)N[C@H]1C(=O)N[C@@H](CC(N)=O)C(=O)N[C@H]2C(=O)N[C@H]3C(=O)N[C@H](C(=O)N[C@H](C(=O)O)c4cc(O)cc(O)c4-c4cc3ccc4O)[C@H](O[C@H]3C[C@](C)(N)[C@@H](O)[C@H](C)O3)c3ccc(c(Cl)c3)Oc3cc2cc(c3O[C@@H]2O[C@H](CO)[C@@H](O)[C@H](O)[C@H]2O[C@H]2C[C@](C)(NCc3ccc(-c4ccc(Cl)cc4)cc3)[C@@H](O)[C@H](C)O2)Oc2ccc(cc2Cl)[C@H]1O` [oritavancin, N-(4-(4-chlorophenyl)benzyl)A82846B] yielded a zone of inhibition at 180 µg/disc ([1]; 180 μg oritavancin, 10% P80, disks stored 14 days, prediffusion, read-out: Average zone diameter) of 17.3 mm, a zone of inhibition at 360 µg/disc ([1]; 360 μg in 5% P80, Experiment 1, disks stored 14 days, no prediffusion, read-out: Zone diameter (mm ± SD)) of 16.3 ± 0.4 mm and a zone of inhibition at 360 µg/disc ([1]; 360 μg oritavancin, 5% P80, disks stored 14 days, prediffusion, read-out: Average zone diameter) of 18.5 mm. For the same molecule, the zone of inhibition at 360 µg/disc ([1]; 360 μg oritavancin, 10% P80, disks stored 14 days, prediffusion, read-out: Average zone diameter) was 17.5 mm, the Inhibition zone diameter ([2]; Mu50, 12.5 μg in 4% P80/Span 80 (1:1), calcium alginate swab, dried overnight) was “no zone” and the Inhibition zone diameter ([2]; Mu50, 12.5 μg in 4% P80/Span 80 (1:1), cotton swab, dried overnight, estimate of diameter) was “no zone”. The Inhibition zone diameter ([2]; Mu50, 25 μg (20 μl of 1.25 mg/ml) in 4% P80/Span 80 (1:1), calcium alginate swab, dried overnight) was “no zone”, the Inhibition zone diameter ([2]; Mu50, 20 μl of 1.25 mg/ml oritavancin in 5% Brij 30) was “no zone” and the zone of inhibition at 360 µg/disc ([2]; Staphylococcus aureus, 3 h, 360 μg oritavancin, excipient 10% HPCD, disks made same day, 3 h prediffusion, average of 2 disks, read-out: Average zone diameter) was 17.3 mm. The zone of inhibition at 360 µg/disc ([2]; Staphylococcus aureus, 192 h, 360 μg in 5% P80, Experiment 2, disks stored 8 days, no prediffusion, read-out: Zone diameter (mm ± SD)) was 13 mm, the zone of inhibition at 360 µg/disc ([2]; Staphylococcus aureus, 336 h, 360 μg in 5% P80, Experiment 1, disks stored 14 days, no prediffusion, read-out: Zone diameter (mm ± SD)) was 13.5 ± 0.7 mm and the zone of inhibition at 360 µg/disc ([2]; Staphylococcus aureus, 360 μg in 5% P80, Average of experiments, no prediffusion, read-out: Zone diameter (mm ± SD)) was 13.3 ± 0.5 mm. For the same molecule, the zone of inhibition at 360 µg/disc ([2]; Staphylococcus aureus, 360 μg in 5% P80, Average of experiments, prediffusion, read-out: Zone diameter (mm ± SD)) was 14.3 ± 0.3 mm, the zone of inhibition at 360 µg/disc ([2]; Staphylococcus aureus, 360 μg in 5% P80, Experiment 1, disks stored 14 days, 3 h prediffusion at room temperature, read-out: Zone diameter (mm ± SD)) was 14.5 mm and the zone of inhibition at 360 µg/disc ([2]; Staphylococcus aureus, 360 μg in 5% P80, Experiment 2, disks stored 8 days, 3 h prediffusion at room temperature, read-out: Zone diameter (mm ± SD)) was 14 mm. For the same molecule, the zone of inhibition at 360 µg/disc ([2]; Staphylococcus aureus, 360 μg oritavancin, excipient 5% P80, disks stored 5 days at room temperature, 3 h prediffusion, average of 2 disks, read-out: Average zone diameter) was 15 mm, the zone of inhibition at 25 µg/disc ([2]; Staphylococcus aureus, Mu50, 25 μg in 4% P80/Span 80 (1:1), cotton swab, dried overnight, estimate of diameter) was 7 mm and the zone of inhibition at 50 µg/disc ([2]; Staphylococcus aureus, Mu50, 50 μg in 4% P80/Span 80 (1:1), calcium alginate swab, dried overnight, read-out: Inhibition zone diameter) was 7 mm. For the same molecule, the zone of inhibition at 50 µg/disc ([2]; Staphylococcus aureus, Mu50, 50 μg in 4% P80/Span 80 (1:1), cotton swab, dried overnight, estimate of diameter) was 10 mm, the zone of inhibition at 50 µg/disc ([2]; Staphylococcus aureus, Mu50, 50 μg, 4% P80/Span 80 ratio 50:50, dried overnight, estimate of diameter) was 10 mm and the zone of inhibition at 50 µg/disc ([2]; Staphylococcus aureus, Mu50, 50 μg, 4% P80/Span 80 ratio 60:40, dried overnight, estimate of diameter) was 11 mm. It also gave a zone of inhibition at 50 µg/disc ([2]; Staphylococcus aureus, Mu50, 50 μg, 4% P80/Span 80 ratio 70:30, dried overnight, estimate of diameter) of 12 mm, a zone of inhibition at 50 µg/disc ([2]; Staphylococcus aureus, Mu50, 50 μg, 4% P80/Span 80 ratio 80:20, dried overnight, estimate of diameter) of 12 mm and a zone of inhibition at 50 µg/disc ([2]; Staphylococcus aureus, Mu50, 50 μg, 4% P80/Span 80 ratio 90:10, dried overnight, estimate of diameter) of 12 mm. It also gave a zone of inhibition at 100 µg/disc [2, 3] of 8 mm, a zone of inhibition at 100 µg/disc [2, 4] of 11 mm and a zone of inhibition at 200 µg/disc [2, 3] of 8 mm. It also gave a zone of inhibition at 200 µg/disc [2, 4] of 10 mm, a zone of inhibition at 1250 µg/mL ([2]; Staphylococcus aureus, Mu50, 20 μl of 1.25 mg/ml oritavancin in 1% poly(ethylene glycol) sorbitol hexaoleate, read-out: Inhibition zone diameter) of 8 mm and a zone of inhibition at 1250 µg/mL ([2]; Staphylococcus aureus, Mu50, 20 μl of 1.25 mg/ml oritavancin in 5% Merpol SE, read-out: Inhibition zone diameter) of 9 mm.
